Measured values published in the kinase profiling compilation of Christmann-Franck et al. (2016).

Key:
Assay in all cases: KINOMEscan competition binding
Details in all cases: compound 10.0 µM
ACVR1B (human) = ACVR1B (human) (UniProt P36896)
AKT1 (human) = AKT1 (human) (UniProt P31749)
AURKA (human) = AURKA (human) (UniProt O14965)
CAMK1D (human) = CAMK1D (human) (UniProt Q8IU85)
CDK11B (human) = CDK11B (human) (UniProt P21127)
CDK18 (human) = CDK18 (human) (UniProt Q07002)
CDK7 (human) = CDK7 (human) (UniProt P50613)
CSNK1G2 (human) = CSNK1G2 (human) (UniProt P78368)
CSNK1G3 (human) = CSNK1G3 (human) (UniProt Q9Y6M4)
DMPK (human) = DMPK (human) (UniProt Q09013)
EPHA1 (human) = EPHA1 (human) (UniProt P21709)
EPHB3 (human) = EPHB3 (human) (UniProt P54753)
FGFR2 (human) = FGFR2 (human) (UniProt P21802)
FRK (human) = FRK (human) (UniProt P42685)
INSR (human) = INSR (human) (UniProt P06213)
[1] = test system: KIT (human), P10721 [D816V]
MAP2K2 (human) = MAP2K2 (human) (UniProt P36507)
MAP2K3 (human) = MAP2K3 (human) (UniProt P46734)
MAP3K3 (human) = MAP3K3 (human) (UniProt Q99759)
MAP4K5 (human) = MAP4K5 (human) (UniProt Q9Y4K4)
MAPK3 (human) = MAPK3 (human) (UniProt P27361)
MARK4 (human) = MARK4 (human) (UniProt Q96L34)
MST1R (human) = MST1R (human) (UniProt Q04912)
MST4 (human) = MST4 (human) (UniProt Q9P289)
NLK (human) = NLK (human) (UniProt Q9UBE8)
NUAK2 (human) = NUAK2 (human) (UniProt Q9H093)
PAK6 (human) = PAK6 (human) (UniProt Q9NQU5)
PAK7 (human) = PAK7 (human) (UniProt Q9P286)
PRKAA2 (human) = PRKAA2 (human) (UniProt P54646)
PRKACA (human) = PRKACA (human) (UniProt P17612)
PRKD3 (human) = PRKD3 (human) (UniProt O94806)
RIOK3 (human) = RIOK3 (human) (UniProt O14730)
ROS1 (human) = ROS1 (human) (UniProt P08922)
RPS6KA5 KD1 (human) = RPS6KA5 KD1 (human) (UniProt O75582)
SRPK1 (human) = SRPK1 (human) (UniProt Q96SB4)
SRPK3 (human) = SRPK3 (human) (UniProt Q9UPE1)
STK35 (human) = STK35 (human) (UniProt Q8TDR2)
STK36 (human) = STK36 (human) (UniProt Q9NRP7)
[2] = target: TYK2 JH1 catalytic (human) (UniProt P29597)
WEE1 (human) = WEE1 (human) (UniProt P30291)

Sequence of AURKA (human) (O14965 whole entry, looked up): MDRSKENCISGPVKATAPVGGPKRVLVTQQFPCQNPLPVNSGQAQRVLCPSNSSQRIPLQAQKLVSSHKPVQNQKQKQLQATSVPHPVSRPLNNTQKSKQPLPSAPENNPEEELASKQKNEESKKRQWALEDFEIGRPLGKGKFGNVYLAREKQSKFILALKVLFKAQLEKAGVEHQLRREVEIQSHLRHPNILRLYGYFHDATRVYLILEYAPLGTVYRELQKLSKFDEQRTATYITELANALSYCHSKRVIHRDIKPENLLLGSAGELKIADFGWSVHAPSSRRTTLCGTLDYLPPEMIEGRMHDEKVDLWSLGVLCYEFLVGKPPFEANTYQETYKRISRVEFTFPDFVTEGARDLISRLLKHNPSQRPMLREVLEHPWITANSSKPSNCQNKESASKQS
Sequence of RPS6KA5 KD1 (human) (O75582 whole entry, looked up): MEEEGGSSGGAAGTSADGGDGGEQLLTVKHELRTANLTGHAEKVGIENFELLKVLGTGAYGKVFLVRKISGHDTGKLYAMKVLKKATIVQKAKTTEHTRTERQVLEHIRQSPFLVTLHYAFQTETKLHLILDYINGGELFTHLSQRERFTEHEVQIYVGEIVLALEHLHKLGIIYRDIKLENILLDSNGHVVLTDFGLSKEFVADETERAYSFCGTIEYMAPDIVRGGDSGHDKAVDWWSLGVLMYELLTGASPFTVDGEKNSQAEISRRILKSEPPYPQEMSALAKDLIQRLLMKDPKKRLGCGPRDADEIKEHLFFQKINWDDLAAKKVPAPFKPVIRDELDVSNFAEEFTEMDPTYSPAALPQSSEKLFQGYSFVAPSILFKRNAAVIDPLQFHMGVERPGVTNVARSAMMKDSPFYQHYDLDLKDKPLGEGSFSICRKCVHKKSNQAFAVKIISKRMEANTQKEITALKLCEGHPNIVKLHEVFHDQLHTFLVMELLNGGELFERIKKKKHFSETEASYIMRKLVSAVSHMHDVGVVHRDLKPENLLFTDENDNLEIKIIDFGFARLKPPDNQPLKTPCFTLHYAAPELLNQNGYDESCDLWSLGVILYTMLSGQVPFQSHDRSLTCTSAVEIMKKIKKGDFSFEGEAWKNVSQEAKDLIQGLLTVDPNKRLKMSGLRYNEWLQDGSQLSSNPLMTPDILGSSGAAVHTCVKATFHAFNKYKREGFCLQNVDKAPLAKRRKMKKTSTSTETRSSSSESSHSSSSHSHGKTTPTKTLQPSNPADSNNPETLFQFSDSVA
Sequence of NLK (human) (Q9UBE8 whole entry, looked up): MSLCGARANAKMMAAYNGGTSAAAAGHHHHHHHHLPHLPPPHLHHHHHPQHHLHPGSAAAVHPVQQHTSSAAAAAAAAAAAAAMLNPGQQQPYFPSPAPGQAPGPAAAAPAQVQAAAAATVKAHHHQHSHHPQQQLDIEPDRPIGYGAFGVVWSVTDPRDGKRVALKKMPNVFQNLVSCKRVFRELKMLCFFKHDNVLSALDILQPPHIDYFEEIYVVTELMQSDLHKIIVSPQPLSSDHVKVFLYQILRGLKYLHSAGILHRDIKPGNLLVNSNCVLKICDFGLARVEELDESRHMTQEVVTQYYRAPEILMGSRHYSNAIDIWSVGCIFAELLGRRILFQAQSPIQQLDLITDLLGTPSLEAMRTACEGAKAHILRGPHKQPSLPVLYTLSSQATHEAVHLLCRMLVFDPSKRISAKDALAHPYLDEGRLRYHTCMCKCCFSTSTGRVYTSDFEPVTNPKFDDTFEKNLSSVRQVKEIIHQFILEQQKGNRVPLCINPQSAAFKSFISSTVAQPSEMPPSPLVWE
Sequence of MST1R (human) (Q04912 whole entry, looked up): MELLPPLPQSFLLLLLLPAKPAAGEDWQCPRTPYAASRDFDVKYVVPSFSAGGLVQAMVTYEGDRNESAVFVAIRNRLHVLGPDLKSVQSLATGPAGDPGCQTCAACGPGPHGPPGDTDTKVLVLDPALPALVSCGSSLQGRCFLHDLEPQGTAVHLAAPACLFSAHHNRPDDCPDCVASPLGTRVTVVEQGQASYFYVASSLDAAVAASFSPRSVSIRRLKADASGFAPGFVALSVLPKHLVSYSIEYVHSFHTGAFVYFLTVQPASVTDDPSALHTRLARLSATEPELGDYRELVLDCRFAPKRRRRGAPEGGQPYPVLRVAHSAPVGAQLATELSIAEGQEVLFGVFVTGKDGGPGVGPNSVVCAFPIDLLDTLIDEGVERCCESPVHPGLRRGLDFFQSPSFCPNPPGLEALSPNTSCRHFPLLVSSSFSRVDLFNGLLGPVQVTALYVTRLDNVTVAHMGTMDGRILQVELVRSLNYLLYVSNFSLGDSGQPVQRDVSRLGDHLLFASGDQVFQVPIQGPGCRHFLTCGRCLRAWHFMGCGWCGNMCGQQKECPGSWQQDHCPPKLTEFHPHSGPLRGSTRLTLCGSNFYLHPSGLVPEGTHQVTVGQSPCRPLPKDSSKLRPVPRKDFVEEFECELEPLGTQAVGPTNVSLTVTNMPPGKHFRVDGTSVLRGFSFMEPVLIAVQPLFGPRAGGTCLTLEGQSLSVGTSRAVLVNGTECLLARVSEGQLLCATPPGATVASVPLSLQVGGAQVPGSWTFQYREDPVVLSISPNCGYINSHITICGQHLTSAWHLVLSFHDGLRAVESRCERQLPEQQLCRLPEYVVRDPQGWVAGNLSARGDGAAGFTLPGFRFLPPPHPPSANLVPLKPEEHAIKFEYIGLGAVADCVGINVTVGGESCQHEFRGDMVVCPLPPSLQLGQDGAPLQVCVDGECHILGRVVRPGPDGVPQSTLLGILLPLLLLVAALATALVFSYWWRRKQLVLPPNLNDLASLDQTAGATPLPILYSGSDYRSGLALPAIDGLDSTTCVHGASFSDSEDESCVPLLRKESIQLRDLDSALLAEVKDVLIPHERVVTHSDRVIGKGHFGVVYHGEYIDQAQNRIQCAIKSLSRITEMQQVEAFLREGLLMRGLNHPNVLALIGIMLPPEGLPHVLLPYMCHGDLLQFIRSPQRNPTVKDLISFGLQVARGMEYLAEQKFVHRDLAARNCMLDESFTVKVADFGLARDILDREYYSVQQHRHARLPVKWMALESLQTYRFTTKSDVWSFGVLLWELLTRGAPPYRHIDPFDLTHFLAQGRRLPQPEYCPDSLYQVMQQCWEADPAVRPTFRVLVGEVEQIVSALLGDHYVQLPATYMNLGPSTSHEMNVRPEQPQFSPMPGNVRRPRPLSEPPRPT
Sequence of KIT (human), P10721 [D816V] (P10721 whole entry D816V, looked up): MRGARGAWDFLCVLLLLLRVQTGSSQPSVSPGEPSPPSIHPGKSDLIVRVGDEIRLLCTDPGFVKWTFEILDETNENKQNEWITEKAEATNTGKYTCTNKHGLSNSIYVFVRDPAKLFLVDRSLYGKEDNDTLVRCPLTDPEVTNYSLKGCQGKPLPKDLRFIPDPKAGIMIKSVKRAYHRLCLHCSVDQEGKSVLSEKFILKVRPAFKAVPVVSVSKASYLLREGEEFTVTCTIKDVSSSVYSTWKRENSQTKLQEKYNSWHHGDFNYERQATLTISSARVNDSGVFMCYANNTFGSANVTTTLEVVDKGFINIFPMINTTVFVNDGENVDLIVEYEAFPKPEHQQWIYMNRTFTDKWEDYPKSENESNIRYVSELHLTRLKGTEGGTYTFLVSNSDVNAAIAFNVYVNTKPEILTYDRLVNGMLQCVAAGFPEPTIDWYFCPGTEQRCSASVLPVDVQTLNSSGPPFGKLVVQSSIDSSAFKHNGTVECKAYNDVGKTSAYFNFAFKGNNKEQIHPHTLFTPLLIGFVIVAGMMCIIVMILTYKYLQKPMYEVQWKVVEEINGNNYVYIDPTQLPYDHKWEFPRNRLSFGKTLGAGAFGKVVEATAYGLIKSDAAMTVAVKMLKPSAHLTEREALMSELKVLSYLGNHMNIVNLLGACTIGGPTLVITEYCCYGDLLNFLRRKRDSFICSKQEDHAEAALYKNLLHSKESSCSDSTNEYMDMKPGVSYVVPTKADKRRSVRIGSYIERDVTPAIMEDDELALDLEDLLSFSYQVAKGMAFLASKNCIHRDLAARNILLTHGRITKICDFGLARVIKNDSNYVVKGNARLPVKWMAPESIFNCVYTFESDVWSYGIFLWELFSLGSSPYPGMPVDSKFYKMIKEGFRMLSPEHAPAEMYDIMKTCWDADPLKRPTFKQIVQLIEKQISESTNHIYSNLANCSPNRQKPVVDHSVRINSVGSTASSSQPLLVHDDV
Sequence of CSNK1G3 (human) (Q9Y6M4 whole entry, looked up): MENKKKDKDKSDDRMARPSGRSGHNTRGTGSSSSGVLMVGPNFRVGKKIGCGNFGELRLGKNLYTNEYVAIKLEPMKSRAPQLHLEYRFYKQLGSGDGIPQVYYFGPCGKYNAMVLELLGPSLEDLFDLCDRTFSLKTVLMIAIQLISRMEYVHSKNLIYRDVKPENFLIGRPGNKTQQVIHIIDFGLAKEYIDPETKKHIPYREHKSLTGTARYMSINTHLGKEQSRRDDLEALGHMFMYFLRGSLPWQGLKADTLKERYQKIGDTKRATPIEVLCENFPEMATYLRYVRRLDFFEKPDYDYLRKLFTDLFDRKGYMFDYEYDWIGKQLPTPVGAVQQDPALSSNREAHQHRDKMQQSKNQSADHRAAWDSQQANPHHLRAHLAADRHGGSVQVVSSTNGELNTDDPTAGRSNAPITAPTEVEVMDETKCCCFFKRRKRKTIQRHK
Sequence of CSNK1G2 (human) (P78368 whole entry, looked up): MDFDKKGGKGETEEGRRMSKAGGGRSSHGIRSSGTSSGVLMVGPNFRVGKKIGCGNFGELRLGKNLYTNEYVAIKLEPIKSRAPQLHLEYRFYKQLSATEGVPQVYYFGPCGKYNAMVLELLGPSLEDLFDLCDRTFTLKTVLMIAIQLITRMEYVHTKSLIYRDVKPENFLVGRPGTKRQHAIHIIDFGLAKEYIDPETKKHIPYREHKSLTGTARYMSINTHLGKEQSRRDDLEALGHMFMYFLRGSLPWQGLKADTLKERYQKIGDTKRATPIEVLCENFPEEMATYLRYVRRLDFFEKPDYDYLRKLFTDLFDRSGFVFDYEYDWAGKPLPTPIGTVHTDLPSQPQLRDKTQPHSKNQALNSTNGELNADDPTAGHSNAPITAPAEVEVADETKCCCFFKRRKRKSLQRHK

SMILES	kinase still bound, per cent of control (ACVR1B (human)) [%]	kinase still bound, per cent of control (AKT1 (human)) [%]	kinase still bound, per cent of control (AURKA (human)) [%]	kinase still bound, per cent of control (CAMK1D (human)) [%]	kinase still bound, per cent of control (CDK11B (human)) [%]	kinase still bound, per cent of control (CDK18 (human)) [%]	kinase still bound, per cent of control (CDK7 (human)) [%]	kinase still bound, per cent of control (CSNK1G2 (human)) [%]	kinase still bound, per cent of control (CSNK1G3 (human)) [%]	kinase still bound, per cent of control (DMPK (human)) [%]	kinase still bound, per cent of control (EPHA1 (human)) [%]	kinase still bound, per cent of control (EPHB3 (human)) [%]	kinase still bound, per cent of control (FGFR2 (human)) [%]	kinase still bound, per cent of control (FRK (human)) [%]	kinase still bound, per cent of control (INSR (human)) [%]	kinase still bound, per cent of control [1] [%]	kinase still bound, per cent of control (MAP2K2 (human)) [%]	kinase still bound, per cent of control (MAP2K3 (human)) [%]	kinase still bound, per cent of control (MAP3K3 (human)) [%]	kinase still bound, per cent of control (MAP4K5 (human)) [%]	other results
N#Cc1c(NC(=O)c2cccc3ccccc23)sc2c1CCCC2	100	94	100	85	95	95	82	57	68	83	85	98	100	58	100	97	100	88	96	65	kinase still bound, per cent of control (MAPK3 (human)): 74%; kinase still bound, per cent of control (MARK4 (human)): 97%; kinase still bound, per cent of control (MST1R (human)): 95%; kinase still bound, per cent of control (MST4 (human)): 79%; kinase still bound, per cent of control (NLK (human)): 65%; kinase still bound, per cent of control (NUAK2 (human)): 95%; kinase still bound, per cent of control (PAK6 (human)): 88%; kinase still bound, per cent of control (PAK7 (human)): 100%; kinase still bound, per cent of control (PRKAA2 (human)): 84%; kinase still bound, per cent of control (PRKACA (human)): 78%; kinase still bound, per cent of control (PRKD3 (human)): 84%; kinase still bound, per cent of control (RIOK3 (human)): 100%; kinase still bound, per cent of control (ROS1 (human)): 90%; kinase still bound, per cent of control (RPS6KA5 KD1 (human)): 85%; kinase still bound, per cent of control (SRPK1 (human)): 100%; kinase still bound, per cent of control (SRPK3 (human)): 100%; kinase still bound, per cent of control (STK35 (human)): 64%; kinase still bound, per cent of control (STK36 (human)): 66%; kinase still bound, per cent of control [2]: 100%; kinase still bound, per cent of control (WEE1 (human)): 64%
C=CC(=O)Nc1cccc(Nc2nc(N[C@H]3CC[C@H](N(C)C)CC3)nc3c2ncn3C(C)C)c1	87	93	100	67	100	77	15	7.9	8.2	8.8	72	83	62	53	69	10	100	77	2.7	60	kinase still bound, per cent of control (MAPK3 (human)): 100%; kinase still bound, per cent of control (MARK4 (human)): 94%; kinase still bound, per cent of control (MST1R (human)): 100%; kinase still bound, per cent of control (MST4 (human)): 16%; kinase still bound, per cent of control (NLK (human)): 96%; kinase still bound, per cent of control (NUAK2 (human)): 45%; kinase still bound, per cent of control (PAK6 (human)): 47%; kinase still bound, per cent of control (PAK7 (human)): 17%; kinase still bound, per cent of control (PRKAA2 (human)): 100%; kinase still bound, per cent of control (PRKACA (human)): 100%; kinase still bound, per cent of control (PRKD3 (human)): 80%; kinase still bound, per cent of control (RIOK3 (human)): 34%; kinase still bound, per cent of control (ROS1 (human)): 99%; kinase still bound, per cent of control (RPS6KA5 KD1 (human)): 93%; kinase still bound, per cent of control (SRPK1 (human)): 52%; kinase still bound, per cent of control (SRPK3 (human)): 47%; kinase still bound, per cent of control (STK35 (human)): 80%; kinase still bound, per cent of control (STK36 (human)): 100%; kinase still bound, per cent of control [2]: 34%; kinase still bound, per cent of control (WEE1 (human)): 51%
COc1cc(C(=O)NC2CCN(C)CC2)ccc1Nc1ncc2c(n1)N(C1CCCC1)C(C)CC(=O)N2C (stereo not given)	100	100	100	17	100	100	100	100	100	100	100	100	100	100	100	100	100	100	100	100	kinase still bound, per cent of control (MAPK3 (human)): 100%; kinase still bound, per cent of control (MARK4 (human)): 100%; kinase still bound, per cent of control (MST1R (human)): 100%; kinase still bound, per cent of control (MST4 (human)): 100%; kinase still bound, per cent of control (NLK (human)): 100%; kinase still bound, per cent of control (NUAK2 (human)): 100%; kinase still bound, per cent of control (PAK6 (human)): 100%; kinase still bound, per cent of control (PAK7 (human)): 100%; kinase still bound, per cent of control (PRKAA2 (human)): 100%; kinase still bound, per cent of control (PRKACA (human)): 100%; kinase still bound, per cent of control (PRKD3 (human)): 32%; kinase still bound, per cent of control (RIOK3 (human)): 100%; kinase still bound, per cent of control (ROS1 (human)): 100%; kinase still bound, per cent of control (RPS6KA5 KD1 (human)): 100%; kinase still bound, per cent of control (SRPK1 (human)): 100%; kinase still bound, per cent of control (SRPK3 (human)): 100%; kinase still bound, per cent of control (STK35 (human)): 100%; kinase still bound, per cent of control (STK36 (human)): 100%; kinase still bound, per cent of control [2]: 100%; kinase still bound, per cent of control (WEE1 (human)): 100%
